Consider 14 compounds from patent publication US8546427B2, “Tetrahydroquinoline derivatives” (Hoffmann-La Roche Inc., priority 2010, dated 2013).

The assay concerns AMP-activated protein kinase (AMPK). The experiment in a line: ADP Quest assay for AMPK activators. In kind it is biochemical. Details: key: fold AMPK activation at 30 μM activator vs none. As to conditions: fold of AMPK activation to phosphorylate SAMS peptide without and with an activator at the concentration of 30 μM. How it is done:
This method evaluates AMP-activated protein kinase (AMPK) activity through detecting the accumulation of ADP product using an ADP Quest kit and determining the E30 values of the small molecular AMPK activators. ADP Quest kit (DiscoveRx, Fremont, Calif.) is stored at −20° C. before use. Before an experiment, thaw the kit (include assay buffer, ADP standard solution, reagent A and reagent B) and equilibrate to room temperature. Dispense the ADP Quest reagents into single-use aliquots and store at −20° C. The compound concentrations typically range from 0 μM to 100 μM by 2-fold dilution. AMP concentrations range from 0.98 μM to 1 mM as the reference control. In an assay, thaw and equilibrate the assay buffer, reagent A and reagent B to room temperature for 30 minutes prior to use. Mix ATP, SAMS peptide substrate and compound, and place them into the 384-well assay plate. Add reagent A and B based on the assay kit protocol. Incubate the assay plate at room temperature for 30 minutes after addition the mixture followed by the addition of AMPK protein (Invitrogen, CA) to initiate the AMPK phosphorylation reaction. At the same time, reactions with AMPK activator AMP in the absence of enzyme is included as blank control. The reaction fluorescence signal is monitored and recorded on Envision in kinetic mode with the excitation wavelength of 530 nm and emission wavelength of 590 nm. The E30 value, defined as the fold of AMPK activation to phosphorylate SAMS peptide without and with an activator at the concentration of 30 μM, is calculated and analyzed using Prism 5.0.
Compound `CC(C)(Nc1ccccc1C1CC(C)(C)c2cc(Cl)ccc2N1)C(=O)O` (centres unmarked) [Example-26, 2-[2-(6-Chloro-4,4-dimethyl-1,2,3,4-tetrahydro-quinolin-2-yl)-phenylamino]-2-methyl-propionic acid] displayed an E30 of 1.26. Under `CN1c2ccc(C#N)cc2C(C)(C)CC1c1cccc(NC2(C(=O)O)CC2)c1` (centres unmarked) [Example-28, 1-[3-(6-Cyano-1,4,4-trimethyl-1,2,3,4-tetrahydro-quinolin-2-yl)-phenylamino]-cyclopropanecarboxylic acid] stands 2.46; under `CC(C)(Nc1cccc(C2CC(C)(C)c3cc(C#N)cc(Cl)c3N2)c1)C(=O)O` (centres unmarked) [Example-29, 2-[3-(8-Chloro-6-cyano-4,4-dimethyl-1,2,3,4-tetrahydro-quinolin-2-yl)-phenylamino]-2-methyl-propionic acid], 2.70; under `Cc1cc(F)cc2c1NC(c1cccc(NC(C)(C)C(=O)O)c1)CC2(C)C` (centres unmarked) [Example-31, 2-[3-(6-Fluoro-4,4,8-trimethyl-1,2,3,4-tetrahydro-quinolin-2-yl)-phenylamino]-2-methyl-propionic acid], 2.16.

`CC1(C)CC(c2ccccc2NC(=O)c2ccc(F)cc2)Nc2ccc(C(=O)O)cc21` (centres unmarked) [Example-32, 2-[2-(4-Fluoro-benzoylamino)-phenyl]-4,4-dimethyl-1,2,3,4-tetrahydro-quinoline-6-carboxylic acid] returned an E30 of 1.31.

With `CCS(=O)(=O)Nc1ccccc1C1CC(C)(C)c2cc(C(=O)O)ccc2N1` (centres unmarked) [Example-33, 2-(2-Ethanesulfonylamino-phenyl)-4,4-dimethyl-1,2,3,4-tetrahydro-quinoline-6-carboxylic acid], the E30 is listed as 2.13. Under `CC1(C)CC(c2ccccc2NS(=O)(=O)c2cccnc2)Nc2ccc(C(=O)O)cc21` (centres unmarked) [Example-34, 4,4-Dimethyl-2-[2-(pyridine-3-sulfonylamino)-phenyl]-1,2,3,4-tetrahydro-quinoline-6-carboxylic acid] stands 2.39; under `CC1(C)CC(c2ccccc2NC(=O)c2ccccc2F)Nc2ccc(C(=O)O)cc21` (centres unmarked) [Example-35, 2-[2-(2-Fluoro-benzoylamino)-phenyl]-4,4-dimethyl-1,2,3,4-tetrahydro-quinoline-6-carboxylic acid], 1.23; under `CC1(C)CC(c2ccccc2NS(=O)(=O)c2cccnc2)Nc2ccc(Cl)cc21` (centres unmarked) [Example-36, Pyridine-3-sulfonic acid [2-(6-chloro-4,4-dimethyl-1,2,3,4-tetrahydro-quinolin-2-yl)-phenyl]-amide], 1.34. With `CC1(C)CC(c2ccccc2NC(=O)c2cccc(F)c2)Nc2ccc(C(=O)O)cc21` (centres unmarked) [Example-37, 2-[2-(3-Fluoro-benzoylamino)-phenyl]-4,4-dimethyl-1,2,3,4-tetrahydro-quinoline-6-carboxylic acid] the figure was 1.20; with `CC1(C)CC(c2ccccc2NS(=O)(=O)c2ccccc2F)Nc2ccc(C(=O)O)cc21` (centres unmarked) [Example-39, 2-[2-(2-Fluoro-benzenesulfonylamino)-phenyl]-4,4-dimethyl-1,2,3,4-tetrahydro-quinoline-6-carboxylic acid], 2.69; with `CC1(C)CC(c2ccccc2NS(=O)(=O)c2ccc(F)cc2)Nc2ccc(C(=O)O)cc21` (centres unmarked) [Example-40, 2-[2-(4-Fluoro-benzenesulfonylamino)-phenyl]-4,4-dimethyl-1,2,3,4-tetrahydro-quinoline-6-carboxylic acid], 3.01. The compound `CC1(C)CC(c2ccccc2NS(=O)(=O)c2ccccc2)Nc2ccc(C(=O)O)cc21` (centres unmarked) [Example-41, 2-(2-Benzenesulfonylamino-phenyl)-4,4-dimethyl-1,2,3,4-tetrahydro-quinoline-6-carboxylic acid] registered an E30 of 2.63. Under `CC1(C)CC(c2ccccc2NS(=O)(=O)c2cccc(F)c2)Nc2ccc(C(=O)O)cc21` (centres unmarked) [Example-42, 2-[2-(3-Fluoro-benzenesulfonylamino)-phenyl]-4,4-dimethyl-1,2,3,4-tetrahydro-quinoline-6-carboxylic acid] stands 2.41.
